# Patent US20230348376A1 (TEIJIN PHARMA LIMITED, priority 2020, published 2023)
# Tested on: mouse neural stem cells (NSCs)
# Assay: Promoting activity in oligodendrocyte differentiation of mouse neural stem cell (GalC immunostaining)
# Format: cell-based
# Conditions: day 10, N=5
# Description: To NSC basal medium (100 mL) included in this product, B27 (1 mL), Penicillin-Streptomycin (1 mL), Glutamine (1 mL), bFGF (20 μL), EGF (10 μL), and Heparin (100 μL) were added to prepare the growth medium. Mouse neural stem cells were reconstituted in a T-25 flask using the growth medium and proliferated as a neurosphere by suspension culture. The cells were expanded by passaging at a split ratio=1:2 in a CO2 incubator (5% CO2, 37° C., wet) to obtain the required number of cells. ACCUTASE (Innovative Cell Technologies, Cat. No. AT104) was used as the passage reagent.
# The differentiation medium containing test substance was prepared to a target final concentration by diluting a solution of 20 mM compound in DMSO to 10-fold with DMSO and then to 2×10^5-fold with the differentiation medium. Additive-free differentiation medium for control was prepared by diluting DMSO to 2×10^5-fold with the differentiation medium to be a final concentration of 5×10^−5%.
# The mouse neural stem cells were seeded on a poly-L-Lysine/Laminin-coated 96-well plate at a cell density of 2.0×10^4 cells/100 μL/well using the differentiation medium and the culture was started in a CO2 incubator (5% CO2, 37° C., wet). The next day, the medium was replaced with the differentiation medium containing a test substance or an additive-free differentiation medium for control, and evaluation of the test substance (N=5) was started (day 0). The medium was replaced every other day by 60% of the medium in the wells. On day 10, cells were fixed and immunostained.
# After the medium was removed, the cells were fixed by adding 100 μL of 4% paraformaldehyde-PBS and being incubated at room temperature for 30 minutes. Next, the cells were washed 3 times with PBS, 100 μL of 5% Goat Serum/PBS was added thereto, and the mixture was incubated at room temperature for 30 minutes to perform blocking and membrane permeation treatment. […] After the cells were washed 3 times with PBS, 100 μL of PBS was added to the wells, and the wells were photographed with fluorescence microscopy. Images were taken under the same condition in all wells, and blue fluorescence and green fluorescence were simultaneously photographed.
# Using the hybrid cell counting software provided in the fluorescence microscope (Keyence, BZ-X700), co-localized spots of green fluorescence and blue fluorescence were extracted, and the number of these spots was defined as the total number of GalC-positive cells, and the oligodendrocyte differentiation ratio was calculated by the following calculation:the total number of GalC-positive cells/the number of nuclei (number of blue fluorescence spots). A significant difference test was performed by t-test between the additive-free group and the sample-added group.
structure (smiles),measurement,setting,value
"C[C@H](CCN1CCOCC1)[C@H]1CC[C@H]2/C(=C/C=C3C[C@@H](O)C[C@H](O)C3)CCC[C@]12C [Compound D023, (1R,3R)-5-(2-((1R,3aS,7aR,E)-7a-methyl-1-((R)-4-morpholinobutan-2-yl)octahydro-4H-inden-4-ylidene)ethylidene)cyclohexane-1,3-diol]",Gal/C positive ratio Average value,10 nM,8.63
same,Gal/C positive ratio Average value,100 nM,11.51
same,Gal/C positive ratio Average value,1000 nM,12.19
